Assay results published in patent publication US5936105A, “14-EPI-19-nor-vitamin D compounds and methods” (Tetrionics, Inc., priority 1998, dated 1999).
“Also recorded” adds a separate entry of the source.

How the values were obtained:
leukemia cells = settings: U.S. Pat. No. 4,391,802; cited from earlier work
D deficient rat [1] = test: In vivo calcemic activity: intestinal calcium transport (everted gut sac technique); settings: for TRANSPORT (S/M): intraperitoneal, mean ± SEM
Method: (§1) In vivo Calcemic Activity
(§2) These studies were carried out with five to six rats per group. Male weanling rats were fed a vitamin D-deficient diet for one week and then shifted to the same diet but with calcium removed for three weeks. The hypocalcemic rats were dosed intraperitoneally with the indicated dose of compound per day for a total of 7 days. Twenty-four hours after the last dose all animals were killed by decapitation and serum calcium was measured by atomic absorption spectroscopy in the presence of 1.0% lanthanium chloride. Intestinal calcium transport was measureed by the everted gut sac technique of Martin and Deluca.

D deficient rat [2] = test: In vivo calcemic activity: serum calcium / bone calcium mobilization (atomic absorption spectroscopy); settings: for SERUM CALCIUM: intraperitoneal, mean ± SEM; for effect on bone, in words: rat, in vivo
Method: as §1, §2

[3] = biological target: T1, Procine Intestinal Nuclear Vitamin D Receptor (Sus scrofa, UniProt A3RGC1); settings: VDR binding, ratio to 1,25(OH)2 D3
T1 sequence (A3RGC1 1-427): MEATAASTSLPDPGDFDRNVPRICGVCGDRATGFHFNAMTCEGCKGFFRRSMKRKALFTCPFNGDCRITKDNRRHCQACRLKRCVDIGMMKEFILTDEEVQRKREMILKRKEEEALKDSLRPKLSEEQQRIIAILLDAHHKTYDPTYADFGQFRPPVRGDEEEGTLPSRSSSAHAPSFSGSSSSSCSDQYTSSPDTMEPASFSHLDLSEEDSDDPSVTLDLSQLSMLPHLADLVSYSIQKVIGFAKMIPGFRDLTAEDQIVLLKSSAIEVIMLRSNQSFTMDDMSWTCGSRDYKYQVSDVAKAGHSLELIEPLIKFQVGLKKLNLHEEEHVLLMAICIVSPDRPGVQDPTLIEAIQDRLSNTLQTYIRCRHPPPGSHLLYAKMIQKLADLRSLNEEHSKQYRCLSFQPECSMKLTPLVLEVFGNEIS

[4] = biological target: T1, Procine Intestinal Nuclear Vitamin D Receptor; test: biochemical
Source text: Binding to the Procine Intestinal Nuclear Vitamin D Receptor.

HL-60 cells [5] = test: Inhibition of HL-60 cell proliferation (thymidine incorporation assay); format: cell-based, human; settings: for Activity vs. 1,25(OH)2 D3: HL-60 proliferation, ratio to 1,25(OH)2 D3; for EC50: Homo sapiens, read-out: EC50 (50% reduction in thymidine incorporation; text: IC50), thymidine incorporation, HL-60; for anti-proliferative activity (I) used for T.P.: relative to 1,25-(OH)2 D3
Method: Inhibition of HL-60 Cell Proliferation.
The ability of the 14-epi-19-nor-vitamin D analogs and the corresponding 19-nor-vitamin D analogs to inhibit proliferation of the HL-60 cell line was measured by thymidine incorporation assay.

HL-60 cells [6] = test: Differentiation of HL-60 cells (NBT reduction assay); format: cell-based, human; settings: for Activity vs. 1,25(OH)2 D3: HL-60 differentiation, ratio to 1,25(OH)2 D3; for EC50: Homo sapiens, read-out: EC50 (concentration to induce differentiation in 50% of the cells; text: IC50), NBT reduction, HL-60; for in vitro differentiative (D) and anti-proliferative (I) activity, in words: HL-60, differentiation and proliferation; for differentiative activity (D) used for T.P.: relative to 1,25-(OH)2 D3
Method: Differentiation of HL-60 Cells.
The ability of the 14-epi-19-nor-vitamin analogs and the corresponding 19-nor-vitamin D analogs to induce differentiation in the human HL-60 promyelocyte cell line was measured by a nitroblue tetrazolium (NBT) reduction assay.

D deficient rat [7] = test: In vivo calcemic activity, overall; settings: for calcemic activity used for T.P.: relative to 1,25-(OH)2 D3; for calcemic activity, in words: relative to 1,25-(OH)2 D3 or 19-nor compounds
Method: as §1, §2

D deficient rat [8] = test: In vivo activation of pro-drug (25-hydroxylation by the liver); settings: inferred from in vivo activity
Method: as §2
The in vivo results also establish the PRO-DRUG concept for the 14-epi-19-nor-25-deoxy-analog. […] This minimal bone activity resulting in lower calcemic toxicity may have important clinical implications.

[9] = TABLE 1, 250 pmol/d/7 days, 5 rats
[10] = TABLE 1, 625 pmol/d/7 days, 5 rats
[11] = TABLE 2, 250 pmol/d/7 days, 5 rats
[12] = TABLE 3, 260 pmol/d/7 days, 6 rats
[13] = TABLE 2, 625 pmol/d/7 days, 5 rats
[14] = TABLE 2, 1300 pmol/d/7 days, 5 rats
[15] = TABLE 1, 1300 pmol/d/7 days, 5 rats
[16] = TABLE 3, 625 pmol/d/7 days, 6 rats
[17] = TABLE 3, 1300 pmol/d/7 days, 6 rats

| Compound | TRANSPORT (S/M) (D deficient rat [1]; [9]) | TRANSPORT (S/M) (D deficient rat [1]; [10]) | SERUM CALCIUM (D deficient rat [2]; [9]) [mg/100 ml] | SERUM CALCIUM (D deficient rat [2]; [10]) [mg/100 ml] | TRANSPORT (S/M) (D deficient rat [1]; [11]) | TRANSPORT (S/M) (D deficient rat [1]; [12]) | SERUM CALCIUM (D deficient rat [2]; [11]) [mg/100 ml] | SERUM CALCIUM (D deficient rat [2]; [12]) [mg/100 ml] | Activity vs. 1,25(OH)2 D3 [3] | EC50 [4] [nM] | Activity vs. 1,25(OH)2 D3 (HL-60 cells [5]) | EC50 (HL-60 cells [5]) [nM] | TRANSPORT (S/M) (D deficient rat [1]; [13]) | TRANSPORT (S/M) (D deficient rat [1]; [14]) | Activity vs. 1,25(OH)2 D3 (HL-60 cells [6]) | EC50 (HL-60 cells [6]) [nM] | SERUM CALCIUM (D deficient rat [2]; [13]) [mg/100 ml] | SERUM CALCIUM (D deficient rat [2]; [14]) [mg/100 ml] | other results |
| --- | --- | --- | --- | --- | --- | --- | --- | --- | --- | --- | --- | --- | --- | --- | --- | --- | --- | --- | --- |
| C=C1/C(=C\C=C2/CCC[C@]3(C)[C@@H]([C@H](C)CCCC(C)C)CC[C@@H]23)C[C@@H](O)C[C@@H]1O [1(OH)D3, 1α-hydroxyvitamin D3] | 8.1 ± 0.1 | 10.6 ± 1.4 | 4.8 ± 0.3 | 5.9 ± 0.1 | – | – | – | – | – | – | – | – | – | – | – | – | – | – | antileukemic activity (induction of differentiation), in words (leukemia cells): potent antileukemic activity |
| C=C1/C(=C\C=C2/CCC[C@]3(C)[C@@H]([C@H](C)CCCC(C)(C)O)CC[C@@H]23)C[C@@H](O)C[C@@H]1O [1,25(OH)2 D3, 1α,25-dihydroxyvitamin D3] | – | – | – | – | 7.8 ± 0.4 | 7.18 ± 0.47 | 5.3 ± 0.3 | 5.36 ± 0.27 | – | – | – | – | – | – | – | – | – | – | antileukemic activity (induction of differentiation), in words (leukemia cells): potent antileukemic activity |
| CC(C)CCC[C@@H](C)[C@H]1CC[C@H]2/C(=C/C=C3C[C@@H](O)C[C@H](O)C3)CCC[C@]12C [19-nor-1(OH)D3] | 6.3 ± 0.7 | 8.6 ± 0.7 | 3.4 ± 0.2 | 3.7 ± 0.2 | – | – | – | – | – | – | – | – | – | – | – | – | – | – | – |
| C[C@H](CCCC(C)(C)O)[C@H]1CC[C@H]2/C(=C/C=C3C[C@@H](O)C[C@H](O)C3)CCC[C@]12C [19-nor-1,25(OH)2 D3, 19-nor-1,25-dihydroxyvitamin D3, reference compound] | – | – | – | – | 4.8 ± 0.4 | – | 3.6 ± 0.1 | – | 0.2 | 4.2 | 0.5 | 60 | 4.9 ± 0.5 | 4.8 ± 0.5 | 0.40 | 13 | 3.6 ± 0.2 | 3.7 ± 0.2 | – |
| CC(C)CCC[C@H](C)[C@H]1CC[C@H]2/C(=C/C=C3C[C@@H](O)C[C@H](O)C3)CCC[C@]12C [20-epi-19-nor-1(OH)D3] | 7.6 ± 0.5 | 9.2 ± 1.1 | 4.1 ± 0.1 | 5.4 ± 0.3 | – | – | – | – | 0.0013 | 600 | – | – | – | – | – | – | – | – | TRANSPORT (S/M) (D deficient rat [1]; [15]): 11.7 ± 1.4 S/M; SERUM CALCIUM (D deficient rat [2]; [15]): 6.7 ± 0.2 mg/100 ml |
| C[C@@H](CCCC(C)(C)O)[C@H]1CC[C@H]2/C(=C/C=C3C[C@@H](O)C[C@H](O)C3)CCC[C@]12C [20-epi-19-nor-1,25(OH)2 D3, reference compound] | – | – | – | – | 7.3 ± 0.1 | – | 5.7 ± 0.5 | – | 1.0 | 0.8 | 7.5 | 4 | 8.2 ± 0.7 | 8.7 ± 0.7 | 25 | 0.2 | 6.3 ± 0.4 | 6.6 ± 0.5 | – |
| C[C@H](CCCC(C)(C)O)[C@H]1CC[C@@H]2/C(=C/C=C3C[C@@H](O)C[C@H](O)C3)CCC[C@@]21C [[27], 14-epi-19-nor-1α,25-dihydroxyvitamin D3] | – | – | – | – | 4.1 ± 0.4 | – | 3.6 ± 0.2 | – | 0.18 | 4.5 | 0.4 | 80 | 3.2 ± 0.4 | 3.5 ± 0.3 | 0.33 | 15 | 3.2 ± 0.1 | 3.4 ± 0.1 | calcemic activity relative to the natural hormone (D deficient rat [7]; 5× the dose of 1,25-(OH)2 D3): less than 20%; calcemic activity used for T.P. (D deficient rat [7]): < 0.2; calcemic activity, in words (D deficient rat [7]): no calcemic activity at 5× the dose of 1,25-(OH)2 D3; also recorded: greatly reduced calcemic activity; anti-proliferative activity (I) used for T.P. (HL-60 cells [5]): 0.4; in vitro differentiative (D) and anti-proliferative (I) activity, in words (HL-60 cells [6]): approximately half as active as 1,25-(OH)2 D3; differentiative activity (D) used for T.P. (HL-60 cells [6]): 0.33; cellular activity, in words (HL-60 cells [6]; relative to native hormone): cellular activity similar to the native hormone |
| CC(C)CCC[C@H](C)[C@H]1CC[C@@H]2/C(=C/C=C3C[C@@H](O)C[C@H](O)C3)CCC[C@@]21C [[28], 14-epi-20-epi-19-nor-1α-hydroxyvitamin D3] | – | – | – | – | – | 3.80 ± 0.23 | – | 3.96 ± 0.05 | < 0.0008 | > 1000 | – | – | – | – | – | – | – | – | in vivo activation / 25-hydroxylation / clearance, in words (D deficient rat [8]): has been 25-hydroxylated by the liver; also recorded: activated in vivo to the active drug product; TRANSPORT (S/M) (D deficient rat [1]; [16]): 5.14 ± 0.66 S/M; TRANSPORT (S/M) (D deficient rat [1]; [17]): 5.90 ± 0.49 S/M; activity on gut, in words (D deficient rat [1]; rat, in vivo): reduced activity on gut compared to the 25-hydroxy drug compound; SERUM CALCIUM (D deficient rat [2]; [16]): 4.11 ± 0.10 mg/100 ml; SERUM CALCIUM (D deficient rat [2]; [17]): 3.79 ± 0.05 mg/100 ml; effect on bone, in words (D deficient rat [2]): no activity on bone |
| C[C@@H](CCCC(C)(C)O)[C@H]1CC[C@@H]2/C(=C/C=C3C[C@@H](O)C[C@H](O)C3)CCC[C@@]21C [[29], 14-epi-20-epi-19-nor-1α,25-dihydroxyvitamin D3] | – | – | – | – | – | 4.36 ± 0.30 | – | 4.02 ± 0.16 | 0.33 | 2.5 | 45 | 0.66 | – | – | 10.0 | 0.5 | – | – | calcemic activity used for T.P. (D deficient rat [7]): < 0.2; calcemic activity, in words (D deficient rat [7]): greatly reduced; times more potent than 1,25-(OH)2 D3 (I) (HL-60 cells [5]; anti-proliferative (I)): 45 times; anti-proliferative activity (I) used for T.P. (HL-60 cells [5]): 56; TRANSPORT (S/M) (D deficient rat [1]; [16]): 6.94 ± 0.27 S/M; TRANSPORT (S/M) (D deficient rat [1]; [17]): 7.14 ± 0.44 S/M; activity on gut, in words (D deficient rat [1]; rat, in vivo): only minimal gut activity; gut activity relative to the natural hormone (D deficient rat [1]; rat, in vivo): 20%; in vitro differentiative (D) and anti-proliferative (I) activity, in words (HL-60 cells [6]): most potent analog; times more potent than 1,25-(OH)2 D3 (D) (HL-60 cells [6]; differentiative (D)): 10 times; differentiative activity (D) used for T.P. (HL-60 cells [6]): 8.0; SERUM CALCIUM (D deficient rat [2]; [16]): 3.66 ± 0.06 mg/100 ml; SERUM CALCIUM (D deficient rat [2]; [17]): 4.10 ± 0.20 mg/100 ml; effect on bone, in words (D deficient rat [2]): no effect on bone at any of the doses tested |
